This note sets out measurements from patent US10077261B2, “Imidazolin-5-one derivative useful as FASN inhibitors for the treatment of cancer” (Janssen Pharmaceutica NV, priority 2012, dated 2018).

The experiment has as its target T1, hFASN enzyme (full length) (Homo sapiens, UniProt P49327).
T1 construct: 10 μL hFASN enzyme (full length, 300 ng, purified in house); made in house
Kind of experiment: Fatty Acid Synthase (FASN) inhibition scintillation proximity assay. It is filed as biochemical. The following applies: for inhibition at 10 µM: read-out: Human FASN % inhibition @ 10 μM, 10 μM test compound; for IC50: read-out: Human FASN pIC50 (converted). An outline of the steps:
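Purified full-length hFASN (300 ng) converts ^3H-acetyl-CoA plus malonyl-CoA to ^3H-palmitate in 100 mM KH2PO4 pH 7.5, 1 mM DTT; compounds tested at 0.01–30 μM. Product captured on streptavidin imaging beads and read by LEADseeker at 610 nm after ≥24 h; 4-parameter logistic fit versus controls.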
A general note: SPA uses beads or plates that emit light when radiolabelled molecules are held near them.

T1 sequence (P49327 whole entry): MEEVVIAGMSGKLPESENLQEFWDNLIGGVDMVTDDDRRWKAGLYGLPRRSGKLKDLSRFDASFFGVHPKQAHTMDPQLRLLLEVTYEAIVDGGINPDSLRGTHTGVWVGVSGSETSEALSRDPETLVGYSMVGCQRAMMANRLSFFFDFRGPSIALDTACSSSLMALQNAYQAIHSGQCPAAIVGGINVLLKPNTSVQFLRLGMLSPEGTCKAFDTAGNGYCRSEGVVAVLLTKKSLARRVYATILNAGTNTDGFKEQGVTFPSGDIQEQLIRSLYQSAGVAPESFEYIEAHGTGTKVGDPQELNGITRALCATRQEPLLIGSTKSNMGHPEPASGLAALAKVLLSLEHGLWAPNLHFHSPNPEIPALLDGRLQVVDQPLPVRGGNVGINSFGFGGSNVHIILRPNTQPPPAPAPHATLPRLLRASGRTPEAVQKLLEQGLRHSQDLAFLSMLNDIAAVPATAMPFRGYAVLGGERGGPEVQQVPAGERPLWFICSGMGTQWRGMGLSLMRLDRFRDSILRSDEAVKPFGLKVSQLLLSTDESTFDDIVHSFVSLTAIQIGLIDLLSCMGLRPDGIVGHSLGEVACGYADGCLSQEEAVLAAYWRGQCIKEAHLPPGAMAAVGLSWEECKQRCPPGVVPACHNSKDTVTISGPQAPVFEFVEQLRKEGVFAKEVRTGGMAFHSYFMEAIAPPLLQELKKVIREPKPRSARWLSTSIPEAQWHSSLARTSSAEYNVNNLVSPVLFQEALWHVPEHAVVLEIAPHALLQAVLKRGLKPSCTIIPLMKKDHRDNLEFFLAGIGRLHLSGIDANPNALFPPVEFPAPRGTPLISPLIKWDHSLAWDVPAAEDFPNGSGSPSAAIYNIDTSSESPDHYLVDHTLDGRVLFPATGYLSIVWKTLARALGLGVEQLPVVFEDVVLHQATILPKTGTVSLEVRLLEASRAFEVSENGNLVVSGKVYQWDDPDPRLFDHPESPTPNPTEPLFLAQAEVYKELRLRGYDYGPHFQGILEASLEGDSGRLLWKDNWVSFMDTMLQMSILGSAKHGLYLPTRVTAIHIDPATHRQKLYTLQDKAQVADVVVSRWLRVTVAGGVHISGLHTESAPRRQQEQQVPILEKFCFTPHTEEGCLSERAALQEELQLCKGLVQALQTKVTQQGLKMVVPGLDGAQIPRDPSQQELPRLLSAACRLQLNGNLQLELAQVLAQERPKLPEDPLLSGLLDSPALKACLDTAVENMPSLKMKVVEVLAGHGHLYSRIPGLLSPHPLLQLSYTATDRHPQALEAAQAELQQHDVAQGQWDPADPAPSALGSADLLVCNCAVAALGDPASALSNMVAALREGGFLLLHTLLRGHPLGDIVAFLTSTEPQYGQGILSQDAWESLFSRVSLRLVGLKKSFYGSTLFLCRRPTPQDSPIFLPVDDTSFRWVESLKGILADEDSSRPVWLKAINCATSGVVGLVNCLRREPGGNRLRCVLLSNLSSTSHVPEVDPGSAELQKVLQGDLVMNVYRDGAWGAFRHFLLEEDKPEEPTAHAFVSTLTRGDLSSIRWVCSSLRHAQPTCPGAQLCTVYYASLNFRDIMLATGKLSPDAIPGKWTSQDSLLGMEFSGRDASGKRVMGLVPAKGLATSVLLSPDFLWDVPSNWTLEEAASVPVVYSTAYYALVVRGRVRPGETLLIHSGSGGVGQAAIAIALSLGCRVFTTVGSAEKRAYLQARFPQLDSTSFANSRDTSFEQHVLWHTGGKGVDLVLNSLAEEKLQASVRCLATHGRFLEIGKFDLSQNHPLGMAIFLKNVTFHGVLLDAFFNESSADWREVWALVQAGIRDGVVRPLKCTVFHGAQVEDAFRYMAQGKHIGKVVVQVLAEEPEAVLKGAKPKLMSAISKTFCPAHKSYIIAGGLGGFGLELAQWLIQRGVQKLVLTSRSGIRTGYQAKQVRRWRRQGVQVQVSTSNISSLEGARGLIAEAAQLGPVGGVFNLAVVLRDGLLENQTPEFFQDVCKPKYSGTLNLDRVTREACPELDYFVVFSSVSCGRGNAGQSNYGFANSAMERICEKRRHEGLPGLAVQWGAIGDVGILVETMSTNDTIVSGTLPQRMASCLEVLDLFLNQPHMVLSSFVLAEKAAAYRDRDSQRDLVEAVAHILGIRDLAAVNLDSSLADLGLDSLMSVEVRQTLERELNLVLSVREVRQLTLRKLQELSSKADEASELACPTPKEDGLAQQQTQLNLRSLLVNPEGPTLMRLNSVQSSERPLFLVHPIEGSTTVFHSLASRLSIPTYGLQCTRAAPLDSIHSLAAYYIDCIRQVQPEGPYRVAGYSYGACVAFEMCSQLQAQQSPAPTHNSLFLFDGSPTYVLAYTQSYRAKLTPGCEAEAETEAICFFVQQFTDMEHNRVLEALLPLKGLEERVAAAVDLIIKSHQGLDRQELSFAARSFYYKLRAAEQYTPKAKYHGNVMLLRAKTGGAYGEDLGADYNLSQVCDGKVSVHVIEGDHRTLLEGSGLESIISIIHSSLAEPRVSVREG

For the molecule `CC(C)N1CCC2(CC1)N=C(c1ccc(-c3ccc(-c4cnn(C)c4)cc3)cc1)N(CC1CN(C(=O)C3CC3)C1)C2=O` [compound 771, 3-{[1-(Cyclopropylcarbonyl)azetidin-3-yl]methyl}-8-(1-methylethyl)-2-[4′-(1-methyl-1H-pyrazol-4-yl)biphenyl-4-yl]-1,3,8-triazaspiro[4.5]dec-1-en-4-one], the inhibition at 10 µM came to 44% and the IC50 was 7.59 µM.

On to `Cn1cc(-c2ccc(-c3ccc(C4=NC5(CCN(CCO)CC5)C(=O)N4CC4CN(C(=O)C5CC5)C4)cc3)cc2)cn1` [compound 772, 3-{[1-(Cyclopropylcarbonyl)azetidin-3-yl]methyl}-8-(2-hydroxyethyl)-2-[4′-(1-methyl-1H-pyrazol-4-yl)biphenyl-4-yl]-1,3,8-triazaspiro[4.5]dec-1-en-4-one], for which the inhibition at 10 µM stood at 64% and the IC50 is 3.98 µM.

For the molecule `Cc1cc(-c2ccc3c(cnn3C)c2)ccc1C1=NC2(CC2)C(=O)N1CC1CN(C(=O)C2(O)CCC2)C1` [compound 796, 6-((1-(1-hydroxycyclobutanecarbonyl)azetidin-3-yl)methyl)-5-(2-methyl-4-(1-methyl-1H-indazol-5-yl)phenyl)-4,6-diazaspiro[2.4]hept-4-en-7-one], the inhibition at 10 µM is 19% and the IC50 was above 10 µM.

`CC(C)(O)c1ccc(-c2ccc(C3=NC4(CC4)C(=O)N3CC3CN(C(=O)C4CC4)C3)cc2)cn1` [compound 797, 6-((1-(cyclopropanecarbonyl)azetidin-3-yl)methyl)-5-(4-(6-(2-hydroxypropan-2-yl)pyridin-3-yl)phenyl)-4,6-diazaspiro[2.4]hept-4-en-7-one]: the inhibition at 10 µM stood at 1% and the IC50 was above 10 µM.

Turning to `O=C(C1CC1)N1CC(CN2C(=O)C3(CC3)N=C2c2ccc(-c3ccc(C4CC4)nc3)cc2)C1` [compound 798, 6-((1-(cyclopropanecarbonyl)azetidin-3-yl)methyl)-5-(4-(6-cyclopropylpyridin-3-yl)phenyl)-4,6-diazaspiro[2.4]hept-4-en-7-one], the inhibition at 10 µM amounted to 30% and the IC50 was above 10 µM.

Regarding `O=C(C1CC1)N1CC(CN2C(=O)C3(CC3)N=C2c2ccc(-c3cnc4ncccc4c3)cc2)C1` [compound 799, 5-(4-(1,8-baphthyridin-3-yl)phenyl)-6-((1-(cyclopropanecarbonyl)azetidin-3-yl)methyl)-4,6-diazaspiro[2.4]hept-4-en-7-one], the inhibition at 10 µM is 39% and the IC50 was above 10 µM.

Consider `N#CC1(c2ccc(-c3ccc(C4=NC5(CC5)C(=O)N4CC4CN(C(=O)C5CC5)C4)cc3)cn2)CC1` [compound 800, 1-(5-(4-(6-((1-(cyclopropanecarbonyl)azetidin-3-yl)methyl)-7-oxo-4,6-diazaspiro[2.4]hept-4-en-5-yl)phenyl)pyridin-2-yl)cyclopropanecarbonitrile], for which the inhibition at 10 µM came out at 16% and the IC50 is above 10 µM.

Take `O=C(C1CC1)N1CC(CN2C(=O)C3(CC3)N=C2c2ccc(-c3cnc4cccnc4c3)cc2)C1` [compound 801, 5-(4-(1,5-naphthyridin-3-yl)phenyl)-6-((1-(cyclopropanecarbonyl)azetidin-3-yl)methyl),4-6diazaspiro[2.4]hept-4-en-7-one]: the inhibition at 10 µM turned out to be 6% and the IC50 was above 10 µM.

As for `O=C(C1CC1)N1CC[C@@H](CN2C(=O)C3(CC3)N=C2c2ccc(-c3cncc(Cl)c3)cc2)C1` [compound 802, (R)-5-(4-(5-chlorppyridin-3-yl)phenyl)-6-((1-(cyclopropanecarbonyl)pyrrolidin-3-yl)methyl)-4,6-diazaspiro[2.4]hept-4-en-7-one], the inhibition at 10 µM amounted to 24% and the IC50 is above 10 µM.

Take `O=C(C1CC1)N1CC(CN2C(=O)C3(CC3)N=C2c2ccc(-c3ccc4c(cnn4C4CC4)c3)cc2)C1` [compound 803, 6-((1-(cyclopropanecarbonyl)azetidin-3-yl)methyl)-5-(4-(1-cyclopropyl-1H-indazol-5-yl)phenyl)-4,6-diazaspiro[2.4]hept-4-en-7-one]: the inhibition at 10 µM was determined as 48% and the IC50 is above 10 µM.

Turning to `O=C(C1CC1)N1CC(CN2C(=O)C3(CC3)N=C2c2ccc(-c3ccc4c(cnn4CC4CC4)c3)cc2)C1` [compound 804, 6-((1-(cyclopropanecarbonyl)azetidin-3-yl)methyl)-5-(4-(1-(cyclopropylmethyl)-1H-indazol-5-yl)phenyl)-4,6-diazaspiro[2.4]hept-4-en-7-one], the inhibition at 10 µM stood at 41% and the IC50 was above 10 µM.

For the molecule `Cc1cc(-c2ccc3c(cnn3C)c2)ccc1C1=NC2(CC2)C(=O)N1CC1CN(C(=O)c2cccnc2)C1` [compound 805, 5-(2-methyl-4-(1-methyl-1H-indazol-5-yl)phenyl)-6-((1-nicotinoylazetidin-3-yl)methyl)-4,6-diazaspiro[2.4]hept-4-en-7-one], the inhibition at 10 µM came out at 14% and the IC50 is above 10 µM.

Consider `O=C(C1CC1)N1CC(CN2C(=O)C3(CC3)N=C2c2ccc(-c3ccc(N4CCOCC4)nc3)cc2)C1` [compound 806, 6-((1-(cyclopropanecarbonyl)azetidin-3-yl)methyl)-5-(4-(6-morpholinopyridin-3-yl)phenyl)-4,6-diazaspiro[2.4]hept-4-en-7-one], for which the inhibition at 10 µM is -6% and the IC50 was above 10 µM.

As to `CC(C)n1ncc2cc(-c3ccc(C4=NC5(CC5)C(=O)N4CC4CN(C(=O)C5CC5)C4)cc3)ccc21` [compound 807, 6-((1-(cyclopropanecarbonyl)azetidin-3-yl)methyl)-5-(4-(1-isopropyl-1H-indazol-5-yl)phenyl)-4,6-diazaspiro[2.4]hept-4-en-7-one], the inhibition at 10 µM was found to be 7% and the IC50 is above 10 µM.

Take `CC(C)n1cc2cc(-c3ccc(C4=NC5(CC5)C(=O)N4CC4CN(C(=O)C5CC5)C4)cc3)ccc2n1` [compound 808, 6-((1-(cyclopropanecarbonyl)azetidin-3-yl)methyl)-5-(4-(2-isopropyl-2H-indazol-5-yl)phenyl)-4,6-diazaspiro[2.4]hept-4-en-7-one]: the inhibition at 10 µM turned out to be 31% and the IC50 was above 10 µM.

For `O=C1CCc2ccc(-c3ccc(C4=NC5(CC5)C(=O)N4C[C@@H]4CCN(C(=O)C5CC5)C4)cc3)cc2N1` [compound 809, (R)-7-(4-(6-((1-(cyclopropanecarbonyl)pyrrolidin-3-yl)methyl)-7-oxo-4,6-diazaspiro[2.4]hept-4-en-5-yl)phenyl)-3,4-dihydroquinolin-2(1H)-one], the inhibition at 10 µM worked out at 29% and the IC50 was above 10 µM.

For `CC(C)n1cc2cc(-c3ccc(C4=NC5(CC5)C(=O)N4C[C@@H]4CCN(C(=O)C5CC5)C4)cc3)ccc2n1` [compound 811, (R)-6-((1-(cyclopropanecarbonyl)pyrrolidin-3-yl)methyl)-5-(4-(2-isopropyl-2H-indazol-5-yl)phenyl)-4,6-diazaspiro[2.4]hept-4-en-7-one], the inhibition at 10 µM worked out at 35% and the IC50 was above 10 µM.

With `Cc1ccc(-c2ccc(-c3ccc(C4=NC5(CC5)C(=O)N4C[C@H]4CCCN(C(=O)C5CC5)C4)cc3)cc2)cc1` [compound 812, (S)-6-((1-(cyclopropanecarbonyl)piperidin-3-yl)methyl)-5-(4″-methyl[1,1′:4′,1″- terphenyl]-4-yl)-4,6-diazaspiro[2.4]hept-4-en-7-one], the inhibition at 10 µM was determined as 5% and the IC50 was above 10 µM.

In the case of `O=C(C1CC1)N1CCC[C@H](CN2C(=O)C3(CC3)N=C2c2ccc(-c3ccc(-c4cccc(Cl)c4)cc3)cc2)C1` [compound 813, (S)-5-(3″-chloro-[1,1′:4′,1″-tertphenyl]-4-yl)-6-((1-(cyclopropanecarbonyl)piperidin-3-yl)methyl)-4,6-diazaspiro[2.4]hept-4-en-7-one], the inhibition at 10 µM came to 2% and the IC50 was above 10 µM.

For the molecule `Cc1cc(C2=NC3(CC3)C(=O)N2CC2CN(C(=O)C3CC3)C2)ccc1-c1ccc2oc(C)c(C)c2c1` [compound 814, 6-((1-(cyclopropanecarbonyl)azetidin-3-yl)methyl)-5-(4-(2,3-dimethylbenzofuran-5-yl)-3-methylphenyl)-4,6-diazaspiro[2.4]hept-4-en-7-one], the inhibition at 10 µM was 39% and the IC50 was above 10 µM.

As for `Cn1cc(-c2ccc(-c3ccc(C4=NC5(CC5)C(=O)N4C[C@H]4CCCN(C(=O)C5CC5)C4)cc3)cc2)cn1` [compound 815, (S)-6-((1-(cyclopropanecarbonyl)piperidin-3-yl)methyl)-5-(4′-(1-methyl-1H-pyrazol-4-yl)-[1,1′-biphenyl]-4-yl)-4,6-diazaspiro[2.4]hept-4-en-7-one], the inhibition at 10 µM was found to be 1% and the IC50 was above 10 µM.

With `O=C(C1CC1)N1CCC[C@H](CN2C(=O)C3(CC3)N=C2c2ccc(-c3ccc4[nH]ncc4c3)cc2)C1` [compound 816, (S)-5-(4-(1H-indazol-5-yl)phenyl)-6-((1-(cyclopropanecarbonyl)piperidin-3-yl)methyl)-4,6-diazaspiro[2.4]hept-4-en-7-one], the inhibition at 10 µM is 4% and the IC50 was above 10 µM.

Consider `O=C(C1CC1)N1CCC[C@H](CN2C(=O)C3(CC3)N=C2c2ccc(-c3ccc4sccc4c3)cc2)C1` [compound 817, (S)-5-(4-(benzo[b]thiophen-5-yl)phenyl)-6-((1-(cyclopropanecarbonyl)piperidin-3-yl)methyl)-4,6-diazaspiro[2.4]hept-4-en-7-one], for which the inhibition at 10 µM stood at 1% and the IC50 was above 10 µM.

For the molecule `O=C(C1CC1)N1CCC[C@H](CN2C(=O)C3(CC3)N=C2c2ccc(-c3ccc4occc4c3)cc2)C1` [compound 818, (S)-5-(4-(benzofuran-5-yl)phenyl)-6-((1-(cyclopropanecarbonyl)piperidin-3-yl)methyl)-4,6-diazaspiro[2.4]hept-4-en-7-one], the inhibition at 10 µM was 2% and the IC50 is above 10 µM.

In general, inhibition refers to the change of the read-out against control, counted positive when it falls.
